The record followed here is ChEMBL document CHEMBL1149083, “CoMFA and CoMSIA 3D-QSAR studies on S(6)-(4-nitrobenzyl)mercaptopurine riboside (NBMPR) analogs as inhibitors of human equilibrative nucleoside transporter 1 (hENT1)” (Bioorg Med Chem Lett, 2009).

This assay has as its target T1, Equilibrative nucleoside transporter 1 (Homo sapiens, UniProt Q99808).
T1 sequence (Q99808 whole entry): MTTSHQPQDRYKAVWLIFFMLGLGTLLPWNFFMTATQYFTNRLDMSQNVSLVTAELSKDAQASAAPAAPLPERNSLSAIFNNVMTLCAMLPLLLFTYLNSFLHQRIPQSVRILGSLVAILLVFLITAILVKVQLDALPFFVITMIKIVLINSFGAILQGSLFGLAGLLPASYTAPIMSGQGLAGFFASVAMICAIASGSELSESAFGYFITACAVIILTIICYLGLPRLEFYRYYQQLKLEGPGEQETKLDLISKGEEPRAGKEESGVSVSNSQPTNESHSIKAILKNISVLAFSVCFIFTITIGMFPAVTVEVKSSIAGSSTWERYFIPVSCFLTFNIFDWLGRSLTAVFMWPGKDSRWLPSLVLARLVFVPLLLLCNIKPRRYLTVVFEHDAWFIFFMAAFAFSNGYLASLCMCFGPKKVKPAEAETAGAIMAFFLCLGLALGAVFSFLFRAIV
Briefly: Inhibition of human ENT1.
The Ki is a dissociation constant, usually derived from enzyme kinetics or from competition with a known ligand. The low end stands for a stronger hold on the target, the high end for a looser hold on the target. `CC(C)(C)c1ccc(CSc2ncnc3c2ncn3[C@@H]2O[C@H](CO)[C@@H](O)[C@H]2O)cc1` gave a Ki of 10000 nM.
As for `OC[C@H]1O[C@@H](n2cnc3c(SCc4ccccc4Cl)ncnc32)[C@H](O)[C@@H]1O`, affinity was put at a Ki of 117 nM.
For the compound `COC(=O)c1ccc(CSc2ncnc3c2ncn3[C@@H]2O[C@H](CO)[C@@H](O)[C@H]2O)cc1`, the Ki was 46.8 nM.
The value for `Cc1ccc(CSc2ncnc3c2ncn3[C@@H]2O[C@H](CO)[C@@H](O)[C@H]2O)cc1` was 15.1 nM.
The value for `OC[C@H]1O[C@@H](n2cnc3c(SCc4ccc(Br)cc4)ncnc32)[C@H](O)[C@@H]1O` was 11.5 nM; that for `OC[C@H]1O[C@@H](n2cnc3c(SCc4ccc(OC(F)(F)F)cc4)ncnc32)[C@H](O)[C@@H]1O` was 7.08 nM.
Compound `OC[C@H]1O[C@@H](n2cnc3c(SCc4cccc(Cl)c4)ncnc32)[C@H](O)[C@@H]1O` had a Ki of 18.2 nM.
In the case of `O=[N+]([O-])c1ccccc1CSc1ncnc2c1ncn2[C@@H]1O[C@H](CO)[C@@H](O)[C@H]1O`, the inhibitory constant (Ki) is 115 nM.
With `N#Cc1ccccc1CSc1ncnc2c1ncn2[C@@H]1O[C@H](CO)[C@@H](O)[C@H]1O`, the Ki was 38.9 nM.
Compound `N#Cc1cccc(CSc2ncnc3c2ncn3[C@@H]2O[C@H](CO)[C@@H](O)[C@H]2O)c1` gave a Ki of 36.3 nM.
`OC[C@H]1O[C@@H](n2cnc3c(SCc4ccccc4Br)ncnc32)[C@H](O)[C@@H]1O` showed an inhibition constant (Ki) of 151 nM.
Regarding `OC[C@H]1O[C@@H](n2cnc3c(SCc4cccc(Br)c4)ncnc32)[C@H](O)[C@@H]1O`, the affinity corresponds to a Ki of 20.9 nM.
As to `OC[C@H]1O[C@@H](n2cnc3c(SCc4ccc(I)cc4)ncnc32)[C@H](O)[C@@H]1O`, the inhibitory constant (Ki) is 3.8 nM.
In the case of `OC[C@H]1O[C@@H](n2cnc3c(SCc4ccccc4I)ncnc32)[C@H](O)[C@@H]1O`, affinity was put at a Ki of 19.5 nM.
In the case of `OC[C@H]1O[C@@H](n2cnc3c(SCc4cccc(F)c4)ncnc32)[C@H](O)[C@@H]1O` it was 12.9 nM.
`Cc1ccccc1CSc1ncnc2c1ncn2[C@@H]1O[C@H](CO)[C@@H](O)[C@H]1O` gave a Ki of 67.6 nM.
`OC[C@H]1O[C@@H](n2cnc3c(SCc4ccc(Cl)c(Cl)c4)ncnc32)[C@H](O)[C@@H]1O` had a Ki of 12.6 nM.
Compound `Cc1cccc(CSc2ncnc3c2ncn3[C@@H]2O[C@H](CO)[C@@H](O)[C@H]2O)c1` had a Ki of 16.2 nM.
In the case of `OC[C@H]1O[C@@H](n2cnc3c(SCc4cccc(C(F)(F)F)c4)ncnc32)[C@H](O)[C@@H]1O` it was 19.1 nM.
In the case of `OC[C@H]1O[C@@H](n2cnc3c(SCc4c(F)cccc4Cl)ncnc32)[C@H](O)[C@@H]1O` it was 87.1 nM.
In the case of `OC[C@H]1O[C@@H](n2cnc3c(SCc4ccccc4F)ncnc32)[C@H](O)[C@@H]1O`, the Ki was 24 nM.
With `Cc1cc(C)c(CSc2ncnc3c2ncn3[C@@H]2O[C@H](CO)[C@@H](O)[C@H]2O)c(C)c1`, the Ki was 1910 nM.
Regarding `OC[C@H]1O[C@@H](n2cnc3c(SCc4ccc(Cl)cc4)ncnc32)[C@H](O)[C@@H]1O`, affinity was put at a Ki of 14.8 nM.
Compound `COc1ccc(CSc2ncnc3c2ncn3[C@@H]2O[C@H](CO)[C@@H](O)[C@H]2O)cc1` showed a Ki of 34.7 nM.
In the case of `OC[C@H]1O[C@@H](n2cnc3c(SCc4ccc(Cl)cc4Cl)ncnc32)[C@H](O)[C@@H]1O`, the affinity corresponds to a Ki of 4.37 nM.
In the case of `O=[N+]([O-])c1cccc(CSc2ncnc3c2ncn3[C@@H]2O[C@H](CO)[C@@H](O)[C@H]2O)c1` it was 1.78 nM; in that of `N#Cc1ccc(CSc2ncnc3c2ncn3[C@@H]2O[C@H](CO)[C@@H](O)[C@H]2O)cc1`, 4.57 nM.
In turn, `OC[C@H]1O[C@@H](n2cnc3c(SCc4ccccc4)ncnc32)[C@H](O)[C@@H]1O` [6-BENZYLTHIOINOSINE] showed a Ki of 20 nM.
